The results in this text go back to patent US5081232A, “Complexes of TC99m radiopharmaceuticals” (priority 1987, dated 1992).

Read-outs that look alike come from different tables or passages of the source.

The conditions of data set [1]: rat, in vivo, iv.
Experimental: (§1) 0.1 ml Tc^99m prep was injected i.v. into a lateral tail vein of 6 anaesthetised rats.
(§2) At 2 minutes and 60 minutes post injection, 3 rats were sacrificed by decapitation, bled from the neck and dissected. The following organs were removed at dissection: kidney, bladder(+urine), lung, liver, spleen, stomach, small intestine, large intestine, brain (weighed), heart (weighed), thyroid, and samples of blood (weighed) and muscle (weighed, the residual carcass and the tail (injection site). Subsequently samples were counted in an automatic twin crystal gamma counter.
(§3) Percentage biodistribution of injected material was calculated (after correction for background) for all organs using the formula: [formula]
(§4) Since only samples of muscle and blood were taken, the percentage in these tissues was calculated assuming blood and muscle to represent 5.8 and 43% of total animal weight respectively using the formula: [formula] where CF= 0.058 for blood
A short description of data set [2]: Animal biodistribution (in vivo, i.v. injection). The settings on record: rats; for Blood, % injected dose/organ: blood taken as 5.8% of body weight; for Muscle, % injected dose/organ: muscle taken as 43% of body weight.
Experimental: as §1, §2, §3, §4
Data set [3] is described as follows: Electrophoresis (behaviour of complex under electrophoretic conditions). It is filed as physicochemical. Conditions: Tc-99 and Tc-99m. As for the experimental part:
A 0.1 g Agarose/10 cm^3 50 mM Phosphate buffer pH 7.4 gel was run at an applied potential of 300 VV for approximately 35 mins, using bromophenol blue indicator (this indicator moves towards the […]). The resulting distribution of activity was determined using suitable equipment.

As for `CCCP(C)CCP(C)CCC.CCCP(C)CC[P](C)(CCC)[99Tc+]([Cl])[N]=O` (centres unmarked) [[^99m Tc(NO) × (PMPE)2]^+], in data set [1] (2 min), the “Blood, % injected dose/organ” value came to 3.27 % injected dose/organ; the “Heart, % injected dose/organ” value stood at 0.92 % injected dose/organ; the “Heart/Blood Counts/Gram ratio” value is listed as 4.15; the “Heart/Liver Counts/Gram ratio” value turned out to be 0.44. In data set [1] (2 min), the “Heart/Muscle Counts/Gram ratio” value amounted to 4.78; the “Kidney + Urine, % injected dose/organ” value worked out at 13.3 % injected dose/organ; the “Liver + GI, % injected dose/organ” value is listed as 44.7 % injected dose/organ; the “Liver, % injected dose/organ” value is listed as 27.4 % injected dose/organ. Further, in data set [1] (2 min), the “Lung, % injected dose/organ” value is recorded as 1.40 % injected dose/organ and the “Muscle, % injected dose/organ” value came out at 21.1 % injected dose/organ. Moreover, in data set [1] (60 min), the “Blood, % injected dose/organ” value was 0.42 % injected dose/organ; the “Heart, % injected dose/organ” value is on record as 0.77 % injected dose/organ; the “Heart/Blood Counts/Gram ratio” value amounted to 27.8; the “Heart/Liver Counts/Gram ratio” value amounted to 1.65. In addition, in data set [1] (60 min), the “Heart/Lung Counts/Gram ratio” value is on record as 2.3; the “Heart/Muscle Counts/Gram ratio” value was determined as 5.01; the “Kidney + Urine, % injected dose/organ” value stood at 15.2 % injected dose/organ; the “Liver + GI, % injected dose/organ” value is on record as 53.6 % injected dose/organ. Moreover, in data set [1] (60 min), the “Liver, % injected dose/organ” value worked out at 6.23 % injected dose/organ; the “Lung, % injected dose/organ” value is 0.53 % injected dose/organ; the “Muscle, % injected dose/organ” value is on record as 17.5 % injected dose/organ. In addition, the “Heart/Lung Counts/Gram ratio” value in data set [2] (2 min p.i.) was 1.0.
With `CC(=O)C=C(C)[O][99Tc-]([Cl])([Cl])([Cl])[N]=O` [[^99 Tc(NO)Cl3 (acac)]^-, trichloro(pentan-2,4-dionato) nitrosyltechnetium(II) anion], the “Stability under electrophoretic conditions” value in data set [3] is given as “decomposed under electrophoretic conditions”. Moreover, in data set [2] (2 min p.i.), the “Brain, % injected dose/organ” value is on record as 0.10 % injected dose/organ; the “Heart, % injected dose/organ” value is 0.56 % injected dose/organ; the “Heart/Blood Counts/Gram ratio” value is 2.2; the “Heart/Liver Counts/Gram ratio” value came out at 2.30. In data set [2] (2 min p.i.), the “Heart/Lung Counts/Gram ratio” value came out at 1.12; the “Heart/Muscle Counts/Gram ratio” value worked out at 2.19; the “Kidney + Urine, % injected dose/organ” value was 1.61 % injected dose/organ; the “Liver + GI, % injected dose/organ” value is 0.00 % injected dose/organ. Also, in data set [2] (2 min p.i.), the “Liver, % injected dose/organ” value is 3.12 % injected dose/organ; the “Lung, % injected dose/organ” value was found to be 0.73 % injected dose/organ; the “Blood, % injected dose/organ” value worked out at 3.56 % injected dose/organ; the “Muscle, % injected dose/organ” value was found to be 27.9 % injected dose/organ. In data set [2] (60 min p.i.), the “Brain, % injected dose/organ” value is 0.05 % injected dose/organ; the “Heart, % injected dose/organ” value worked out at 0.23 % injected dose/organ; the “Heart/Blood Counts/Gram ratio” value is on record as 1.76; the “Heart/Liver Counts/Gram ratio” value turned out to be 0.39. Moreover, in data set [2] (60 min p.i.), the “Heart/Lung Counts/Gram ratio” value stood at 0.74; the “Heart/Muscle Counts/Gram ratio” value is recorded as 1.84; the “Kidney + Urine, % injected dose/organ” value turned out to be 13.55 % injected dose/organ; the “Liver + GI, % injected dose/organ” value is 0.00 % injected dose/organ. In data set [2] (60 min p.i.), the “Liver, % injected dose/organ” value turned out to be 8.27 % injected dose/organ; the “Lung, % injected dose/organ” value amounted to 0.53 % injected dose/organ; the “Blood, % injected dose/organ” value came to 2.00 % injected dose/organ; the “Muscle, % injected dose/organ” value is 14.37 % injected dose/organ.
